This passage reports IC50 and Kd results from patent publication US8362000B2, “Azetidinyl diamides as monoacylglycerol lipase inhibitors” (Janssen Pharmaceutica NV, priority 2009, dated 2013).

Test [1] has as its target T1, purified wild type MGL (wt-MGLL 6H-11-313) (Homo sapiens, UniProt Q99685).
T1 sequence (Q99685 1-303): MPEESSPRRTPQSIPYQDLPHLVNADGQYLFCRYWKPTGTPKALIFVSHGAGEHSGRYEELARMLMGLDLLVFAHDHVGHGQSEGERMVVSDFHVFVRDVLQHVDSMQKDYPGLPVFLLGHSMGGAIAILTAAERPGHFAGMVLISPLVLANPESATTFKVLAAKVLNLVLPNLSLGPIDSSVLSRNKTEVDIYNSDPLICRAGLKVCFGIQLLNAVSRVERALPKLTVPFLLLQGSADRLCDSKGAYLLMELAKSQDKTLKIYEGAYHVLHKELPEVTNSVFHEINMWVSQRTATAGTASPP

Another test deals with T2, mutant MGL (Homo sapiens, UniProt Q99685, L169S/L176S).
T2 sequence (Q99685 1-303 L169S/L176S): T1 sequence (Q99685 1-303) with L169S, L176S
Nature of the test: MGL ThermoFluor assay - mutant. It counts as binding. Background: DSF heats the sample and reads unfolding from a dye or from intrinsic fluorescence.

Where [2] appears, read: ThermoFluor, compound concentration measured by qNMR, read-out: MGL mutant ThermoFluor qKd (using qNMR conc.).
The mark [3] stands for this setting: ThermoFluor concentration-response, read-out: MGL mutant ThermoFluor Kd.
Where [4] appears, read: ThermoFluor thermal stability binding assay, read-out: MGL mutant ThermoFluor Kd.
[5] abbreviates: compound concentration measured by qNMR, read-out: MGL mutant ThermoFluor qKd (using qNMR conc.).
Setting [6] is: ThermoFluor, compound concentration measured by qNMR, read-out: MGL mutant ThermoFluor qKd (μM) (using qNMR conc.).

Changes are numbered by the printed parent chain. Like-named read-outs stand apart in the source and are kept apart here.

Consider `O=C(c1ccc(-c2nc(-c3cccc(C(F)(F)F)c3)cs2)cc1)N1CC(N2CCN(C(=O)c3nccs3)CC2)C1` [Cpd 1332], for which, in test [1], the IC50 (in general, the concentration that inhibits the measured activity by half) is less than 5 nM. For the same molecule, the Kd on mutant MGL (setting [2]) worked out at 0.008 µM.

In test [1], `O=C(c1ccc(Oc2cccc(F)n2)cc1)N1CC(N2CCN(C(=O)c3nccs3)CC2)C1` [Cpd 715] showed an IC50 of 135 nM. Further, the Kd on mutant MGL (setting [3]) amounted to 0.167 µM.

The molecule `Cc1c(C(=O)N2CCN(C3CN(C(=O)c4nc(C(F)(F)F)cs4)C3)CC2)sc2cc(C(F)(F)F)ccc12` [Cpd 814] yielded an IC50 in test [1] of 2430 nM. For the same molecule, at mutant MGL (setting [3]), the Kd is more than 31 µM.

As to `O=C(c1ccccc1)N1CCN(C2CN(C(=O)c3cccc4[nH]c(-c5ccccc5Cl)nc34)C2)CC1` [Cpd 608], the IC50 in test [1] was 4170 nM. For the same molecule, the Kd on mutant MGL (setting [4]) is 1.67 µM.

For the molecule `Cc1nc2cc(C(=O)N3CC(N4CCN(C(=O)c5cscn5)CC4)C3)ccc2n1-c1ccccc1` [Cpd 1296], the IC50 in test [1] came out at 3300 nM. On mutant MGL (setting [5]), the Kd was 0.197 µM.

The molecule `O=C(c1ccc2c(ccn2-c2cccnc2)c1)N1CC(N2CCN(C(=O)c3ccc[nH]3)CC2)C1` [Cpd 1247, 1-Pyridin-3-yl-5-({3-[4-(1H-pyrrol-2-ylcarbonyl)piperazin-1-yl]azetidin-1-yl}carbonyl)-1H-indole] came in with an IC50 in test [1] of 539 nM. Also, the Kd at mutant MGL (setting [2]) came out at 0.65 µM.

Take `O=C(c1ccc2c(c1)ncn2-c1ccc(C(F)(F)F)cc1)N1CC(N2CCN(C(=O)c3cscn3)CC2)C1` [Cpd 1231]: in test [1], the midpoint of inhibition, the IC50, lay at 316 nM. Besides, the Kd at mutant MGL (setting [5]) is 0.131 µM.

Turning to `O=C(c1ccc2c(cnn2Cc2ccc(C(F)(F)F)cc2)c1)N1CC(N2CCN(C(=O)c3nccs3)CC2)C1` [Cpd 1036, 5-({3-[4-(1,3-Thiazol-2-ylcarbonyl)piperazin-1-yl]azetidin-1-yl}carbonyl)-1-[4-(trifluoromethyl)benzyl]-1H-indazole], the IC50 in test [1] is less than 5 nM. The Kd on mutant MGL (setting [5]) turned out to be 0.005 µM.

As for `COc1ccc(C(C)(C)C)cc1C(=O)N1CC(N2CCN(C(=O)c3nccs3)CC2)C1` [Cpd 849], in test [1], inhibition was half-maximal at 7010 nM (IC50). Also, the Kd on mutant MGL (setting [3]) came to 2.7 µM.

In test [1], `O=C(c1ccc(Cl)nc1)c1c[nH]c2cc(C(=O)N3CC(N4CCN(C(=O)c5nccs5)CC4)C3)ccc12` [Cpd 949] came in with an IC50 of 163 nM. For the same molecule, the Kd at mutant MGL (setting [3]) was determined as 0.178 µM.

Regarding `Cc1nc(-c2ccccc2F)sc1C(=O)N1CC(N2CCN(C(=O)c3nccs3)CC2)C1` [Cpd 1202], the IC50 in test [1] stood at 152 nM. In addition, the Kd on mutant MGL (setting [3]) came to 0.065 µM.

With `CC(C)n1c(C(F)(F)F)nc2cc(C(=O)N3CC(N4CCN(C(=O)c5cscn5)CC4)C3)ccc21` [Cpd 831], in test [1], the IC50 amounted to 4100 nM. Besides, the Kd on mutant MGL (setting [3]) amounted to 0.27 µM.

In test [1], `O=C(c1ccc2[nH]c(C3CCCCC3)nc2c1)N1CCN(C2CN(C(=O)c3nccs3)C2)CC1` [Cpd 827] gave an IC50 of 3310 nM. Also, the Kd at mutant MGL (setting [3]) was found to be 0.5 µM.

For the molecule `O=C(c1cc2ccc(Br)cc2[nH]1)N1CC(N2CCN(C(=O)c3nccs3)CC2)C1` [Cpd 792], half-maximal inhibition in test [1] (IC50) was put at 1460 nM. Further, on mutant MGL (setting [2]), the Kd worked out at 0.973 µM.

As to `O=C(c1ccc(-c2ccccc2)cc1)N1CC(N2CCN(C(=O)C3CC3(F)F)CC2)C1` (stereo not shown) [Cpd 1256], the IC50 in test [1] was 808 nM. The Kd at mutant MGL (setting [4]) came to 0.393 µM.

As to `O=C(c1ccc2nc(-c3nccs3)sc2c1)N1CC(N2CCN(C(=O)c3nccs3)CC2)C1` [Cpd 1210], the IC50 in test [1] was found to be 195 nM. Further, the Kd at mutant MGL (setting [6]) is 0.097 µM.

On to `O=C(c1cscn1)N1CC(N2CCN(C(=O)c3cc4cc(Cl)ccc4o3)CC2)C1` [Cpd 809], for which the IC50 in test [1] was 2100 nM. Besides, the Kd at mutant MGL (setting [3]) was found to be 0.769 µM.

`Cn1cc(-c2cccc(F)c2)c2ccc(C(=O)N3CC(N4CCN(C(=O)c5nccs5)CC4)C3)cc21` [Cpd 1142] had an IC50 in test [1] of 29 nM. Also, the Kd at mutant MGL (setting [5]) was 0.001 µM.

Regarding `O=C(c1ccc(Oc2ccccn2)cc1)N1CC(N2CCN(C(=O)C(F)(F)F)CC2)C1` [Cpd 869], the IC50 in test [1] was 12900 nM. Also, the Kd on mutant MGL (setting [5]) came out at 6.2 µM.

For `O=C(c1ccc2c(c1)[nH]c(=O)n2C1CCC(F)(F)CC1)N1CC(N2CCN(C(=O)c3cscn3)CC2)C1` [Cpd 945], the IC50 in test [1] was determined as 1480 nM. In addition, on mutant MGL (setting [3]), the Kd stood at 0.083 µM.

Consider `O=C(c1ccc2c(ccn2-c2ccccn2)c1)N1CC(N2CCN(C(=O)c3ccc[nH]3)CC2)C1` [Cpd 1189, 1-Pyridin-2-yl-5-({3-[4-(1H-pyrrol-2-ylcarbonyl)piperazin-1-yl]azetidin-1-yl}carbonyl)-1H-indole], for which, in test [1], half-maximal inhibition (IC50) required 97 nM. Further, the Kd at mutant MGL (setting [2]) stood at 0.153 µM.

For `Cc1c(C(=O)N2CC(N3CCN(C(=O)c4nccs4)CC3)C2)nc2ccc(Br)cn12` [Cpd 868], the IC50 in test [1] is 12100 nM. In addition, at mutant MGL (setting [2]), the Kd is more than 23.1 µM.

Consider `Cc1nc2cc(C(=O)N3CC(N4CCN(C(=O)c5ccccc5)CC4)C3)ccc2n1C1CCCCC1` [Cpd 37, 1-Cyclohexyl-2-methyl-5-({3-[4-(phenylcarbonyl)piperazin-1-yl]azetidin-1-yl}carbonyl)-1H-benzimidazole], for which, in test [1], half-maximal inhibition (IC50) required 5990 nM. Also, on mutant MGL (setting [3]), the Kd is 0.1 µM.

In the case of `O=C(c1ccccc1)c1c[nH]c(C(=O)N2CC(N3CCN(C(=O)c4nccs4)CC3)C2)c1` [Cpd 874], the IC50 in test [1] was determined as 15200 nM. For the same molecule, the Kd on mutant MGL (setting [2]) is 8.46 µM.

Take `O=C(c1ccc(-c2cccc(C(F)(F)F)c2)cc1)N1CC(N2CCN(C(=O)c3ccc(Cl)s3)CC2)C1` [Cpd 1143]: the IC50 in test [1] was 30 nM. For the same molecule, the Kd at mutant MGL (setting [6]) stood at 0.07 µM.

Take `Cc1cc(C(=O)N2CC(N3CCN(C(=O)c4nccs4)CC3)C2)sc1Br` [Cpd 723]: in test [1], inhibition was half-maximal at 181 nM (IC50). The Kd at mutant MGL (setting [6]) is 0.292 µM.

Turning to `Cc1c(C(=O)N2CC(N3CCN(C(=O)c4cscn4)CC3)C2)sc2cc(F)ccc12` [Cpd 742], in test [1], half-maximal inhibition (IC50) required 306 nM. Besides, the Kd on mutant MGL (setting [4]) was determined as 0.02 µM.

`O=C(c1ccc2c(cnn2-c2cccc(OC(F)(F)F)c2)c1)N1CC(N2CCN(C(=O)c3nccs3)CC2)C1` [Cpd 1374] had an IC50 in test [1] of less than 5 nM. Besides, the Kd at mutant MGL (setting [6]) was 0.007 µM.

Regarding `O=C(c1nccs1)N1CCN(C2CN(C(=O)c3cccc4oc(-c5cccnc5)nc34)C2)CC1` [Cpd 1251], the IC50 in test [1] came out at 684 nM. Moreover, on mutant MGL (setting [4]), the Kd turned out to be 0.146 µM.

On to `O=C(c1cn[nH]c1)N1CCN(C2CN(C(=O)c3ccc(-c4ccccc4)cc3)C2)CC1` [Cpd 1310], for which, in test [1], the IC50 was 11600 nM. Also, the Kd on mutant MGL (setting [4]) was determined as 8.35 µM.

In test [1], `O=C(c1ccccc1)N1CCN(C2CN(C(=O)c3ccc(Oc4cccnc4)cc3)C2)CC1` [Cpd 527] came in with an IC50 of 8570 nM. In addition, the Kd at mutant MGL (setting [3]) is 10 µM.

`Cc1nc2cc(C(=O)N3CC(N4CCN(C(=O)c5cscn5)CC4)C3)ccc2n1CC(F)(F)F` [Cpd 858] had an IC50 in test [1] of 8770 nM. Besides, the Kd on mutant MGL (setting [5]) stood at 0.561 µM.

In the case of `O=C(c1ccc(CS(=O)(=O)c2cccc(C(F)(F)F)c2)cc1)N1CC(N2CCN(C(=O)c3nccs3)CC2)C1` [Cpd 976, 1-(1,3-Thiazol-2-ylcarbonyl)-4-(1-{[4-({[3-(trifluoromethyl)phenyl]sulfonyl}methyl)phenyl]carbonyl}azetidin-3-yl)piperazine], the midpoint of inhibition in test [1], the IC50, lay at 574 nM. Besides, the Kd at mutant MGL (setting [3]) turned out to be 1.84 µM.

In the case of `O=C(c1ccc(-n2cnc3ccccc32)cc1)N1CCN(C2CN(C(=O)c3nccs3)C2)CC1` [Cpd 1298], in test [1], 3850 nM corresponded to half-maximal inhibition (IC50). Also, the Kd at mutant MGL (setting [3]) came to 0.474 µM.

In turn, `O=C(c1ccccc1)N1CCN(C2CN(C(=O)c3ccc(Oc4cccc(Cl)c4)nc3)C2)CC1` [Cpd 519, 1-(1-{[6-(3-Chlorophenoxy)pyridin-3-yl]carbonyl}azetidin-3-yl)-4-(phenylcarbonyl)piperazine] returned an IC50 in test [1] of 1620 nM. Moreover, the Kd on mutant MGL (setting [3]) was determined as 0.962 µM.
